In patent US20170280720A1, “ARGININE […] INHIBITORS AND USES THEREOF” (EPIZYME, INC., priority 2014, published 2017) one finds IC50 data, which are given here for 28 compounds.

What is called IC50 is the concentration that inhibits the measured activity by half.

Where a name gives a salt, the structure may show the parent alone.

T1 sequence (Q99873 with tags, fused parts or gaps): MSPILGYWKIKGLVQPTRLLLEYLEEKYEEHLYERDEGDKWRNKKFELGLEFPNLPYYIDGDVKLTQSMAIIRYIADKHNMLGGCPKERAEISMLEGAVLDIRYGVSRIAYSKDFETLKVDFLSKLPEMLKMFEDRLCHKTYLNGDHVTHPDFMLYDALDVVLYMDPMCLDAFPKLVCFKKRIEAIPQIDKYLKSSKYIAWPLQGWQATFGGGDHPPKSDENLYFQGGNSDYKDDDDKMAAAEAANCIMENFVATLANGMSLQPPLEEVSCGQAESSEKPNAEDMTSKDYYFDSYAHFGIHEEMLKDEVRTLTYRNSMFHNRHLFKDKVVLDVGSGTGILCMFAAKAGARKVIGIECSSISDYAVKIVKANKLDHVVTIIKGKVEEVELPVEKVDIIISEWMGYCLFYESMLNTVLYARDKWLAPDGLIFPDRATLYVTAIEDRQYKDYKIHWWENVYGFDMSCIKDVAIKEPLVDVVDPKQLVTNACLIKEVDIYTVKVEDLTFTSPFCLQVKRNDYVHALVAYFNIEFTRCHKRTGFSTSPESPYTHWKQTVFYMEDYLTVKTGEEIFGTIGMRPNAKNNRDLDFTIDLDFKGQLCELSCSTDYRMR

The assay addresses T1, human PRMT1 (Homo sapiens, UniProt Q99873).
T1 construct: GST-tagged PRMT1; made in house; host or cells: High Five insect cells (baculovirus, pFastBacI)
Put plainly: PRMT1 biochemical assay (3H-SAM Flashplate, peptide substrate). Particulars: read-out: PRMT1_ IC50. An outline of the steps:
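FLAG-tagged full-length human PRMT1 (0.5 nM, GST-tagged, insect-cell expressed) preincubated 30 min at RT with compound, then biotinylated histone H4 36-50 peptide (20 nM) plus 200 nM 3H-SAM and 1.5 uM SAM in Bicine pH 7.6, 2% DMSO. 3H-methylated peptide captured on streptavidin Flashplate; IC50 from 3/4-parameter fit.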
For `CNCCN(C)Cc1cccc(-c2ccc3nc[nH]c3c2)c1` [Compound 75], the IC50 stood at 312 nM.

As for `CNCCN(C)Cc1cccc(-c2cc(C(=O)NCc3ccccn3)c3cnn(C(C)C)c3n2)c1` [Compound 98], the IC50 worked out at 456 nM.

As for `COC(=O)Nc1cc(-c2cccc(CN(C)CCN)c2)nc2c1cnn2C(C)C` [Compound 71], the IC50 stood at 302 nM.

For the compound `CCNc1cc(-c2cccc(CN(C)CCNC)c2)nc2c1cnn2C(C)C` [Compound 72], the 50% inhibitory concentration (IC50) turned out to be 303 nM.

Turning to `NCCNCc1ccc(-c2ccc3ncn(CC4CCNCC4)c3c2)cc1` [Compound 70], the IC50 came out at 295 nM.

On to `CNCCN(C)Cc1cccc(-c2ccc3ncn(C)c3c2)c1` [Compound 92], for which the IC50 worked out at 432 nM.

As to `CNCCN(C)Cc1cccc(-c2cc(NC3COC3)c3cnn(C(C)C)c3n2)c1` [Compound 58], the IC50 amounted to 239 nM.

For the compound `CNCCN(C)Cc1cccc(-c2cc(-c3cnn(C)c3)c3cnn(C(C)C)c3n2)c1` [Compound 49, N1-(3-(1-isopropyl-4-(1-methyl-1H-pyrazol-4-yl)-1H-pyrazolo[3,4-b]pyridin-6-yl)benzyl)-N1,N2-dimethylethane-1,2-diamine], the IC50 was found to be 213 nM.

In the case of `CNCCN(C)Cc1cccc(-c2nc(NCc3cccnc3)c3cnn(C4CC4)c3n2)c1` [Compound 63], the IC50 was found to be 262 nM.

In the case of `CCOC(=O)c1cc(-c2cccc(CN(C)CCNC)c2)nc2c1cnn2C(C)C` [Compound 78], the IC50 stood at 337 nM.

For the compound `CNCCN(C)Cc1cccc(-c2cc(N(C)C3CC3)c3cnn(C(C)C)c3n2)c1` [Compound 95], the IC50 is 451 nM.

In the case of `CNCCN(C)Cc1cccc(-c2cc(N3CCC(C(F)(F)F)CC3)c3cnn(C(C)C)c3n2)c1` [Compound 50], the IC50 came out at 223 nM.

As to `CNCCN(C)Cc1cccc(-c2cc(C(=O)NC3CCOCC3)c3cnn(C4CC4)c3n2)c1` [Compound 87], the IC50 was determined as 412 nM.

On to `Cc1c(C(=O)NCc2ccccc2)cc(-c2ccc(CN(C)CCN)cc2)c2cn[nH]c12` [Compound 7], for which the IC50 came to 45.2 nM.

In the case of `CNCCN(C)Cc1cccc(-c2cc(C(=O)NCC3CCOCC3)c3cnn(C(C)C)c3n2)c1` [Compound 105], the IC50 was 548 nM.

With `CNCCN(C)Cc1cccc(-c2cc(N3CCOCC3)n3ncc(C(C)C)c3n2)c1` [Compound 62, N1-(3-(3-isopropyl-7-morpholinopyrazolo[1,5-a]pyrimidin-5-yl)benzyl)-N1,N2-dimethylethane-1,2-diamine formate], the IC50 was determined as 258 nM.

`CCOc1cc(-c2cccc(CN(C)CCNC)c2)nc2c1cnn2C(C)C` [Compound 53]: the IC50 was found to be 228 nM.

In the case of `CCS(=O)(=O)Nc1cc(-c2cccc(CN(C)CCN)c2)nc2c1cnn2C(C)C` [Compound 111], the half-maximal inhibitory concentration (IC50) stood at 585 nM.

Turning to `CC(C)n1ncc2c(NC(=O)OCc3ccccc3)cc(-c3cccc(CN(C)CCN)c3)nc21` [Compound 84], the 50% inhibitory concentration (IC50) turned out to be 387 nM.

In the case of `CC(C)n1ncc2c(N3CCOCC3)cc(-c3cccc(CN(C)CCN)c3)nc21` [Compound 61, N1-(3-(1-isopropyl-4-morpholino-1H-pyrazolo[3,4-b]pyridin-6-yl)benzyl)-N1-methylethane-1,2-diamine], the concentration for half-maximal inhibition (IC50) is 249 nM.

With `CNCCN(C)Cc1cccc(-c2cc(NC)c3cnn(C(C)C)c3n2)c1` [Compound 121], the IC50 was determined as 721 nM.

For `CNCCN(C)Cc1cccc(-c2cc(-c3ccoc3)c3cnn(C(C)C)c3n2)c1` [Compound 67], the IC50 stood at 275 nM.

Take `CNCCN(C)Cc1cccc(-c2cc(N3CCC(OC)CC3)c3cnn(C(C)C)c3n2)c1` [Compound 51]: the IC50 was determined as 226 nM.

Turning to `CN(CCN)Cc1cccc(-c2nc(NCc3ccncc3)c3cnn(C4CC4)c3n2)c1` [Compound 66], the IC50 came to 274 nM.

In the case of `COc1ccccc1-c1nc2ccc(-c3ccc(CNCCN)cc3)cc2[nH]1` [Compound 115], the concentration for half-maximal inhibition (IC50) is 629 nM.

In the case of `CNCCN(C)Cc1cccc(-c2cc(OC3CCOC3)c3cnn(C(C)C)c3n2)c1` (stereo not shown) [Compound 102], the half-maximal inhibitory concentration (IC50) came to 492 nM.

Consider `CNCCN(C)Cc1cccc(-c2cc(C(=O)NCCCCCC(=O)NCc3ccn(C)n3)c3cnn(C(C)C)c3n2)c1` [Compound 117], for which the IC50 was determined as 642 nM.

Turning to `CC(C)n1ncc2c(C(=O)NCc3ccccc3Cl)cc(-c3cccc(CN(C)CCN)c3)nc21` [Compound 54], the IC50 is 231 nM.
